Tests used:
[1] = Polymorph stress test: water content by Karl Fisher titration after storage; type: physicochemical; settings: for Water content (Karl Fisher): dipotassium salt
Method: Samples of polymorph Form Ib and polymorph Form II also were analyzed for water content using Karl Fisher titration according to method AM-1-General/water content. A columetric Karl Fisher titrator (DL39, Mettler Toledo) was used with a Stromboli drying oven (Mettler Toledo), a generator electrode, and a standard analytical balance (at least […] accuracy). Instrument conditions were set for an oven temperature of 150° C., a gas flow rate of 100.0 mL/min, and a stirrer speed of 50%. Control parameters were set for a max time of 600 s, a current of 2.0 μA, an end point of 100 mV, and a generation speed set at normal. The samples were tested on the day of synthesis (zero point) and at 1, 2, and 4 weeks storage at ambient conditions (i.e., room temperature and room humidity), at 25° C. (+/−2° C.) and 60% relative humidity (RH) (+/−5% RH), and at 40° C. (+/−2° C.) and 75% RH (+/−5% RH). Test results are provided in Table 10 (Form Ib) and Table 11 (Form II), wherein the values provided are the percent water content.

[2] = Polymorph stress test: purity by HPLC-UV after storage; type: physicochemical; settings: for Purity by HPLC-UV, average: average over time points
Method: Samples of polymorph Form Ib and polymorph Form II were analyzed for purity by HPLC-UV according to method AM-5-ASP001 performed by gradient liquid chromatography with UV-detection at 237 nm. A Hypersil GOLD column from Thermo Scientific (250×4.6 mm, 5 μm) was used at a temperature of 30° C. A Dionex STH 585 column oven was used with a Dionex P580 gradient pump and a flow rate of 1.0 ml/min (gradient elution). A Dionex Degasys DG-1210 degasser and a Gynkotek Gina 50 autosampler injector were used with an injection volume of 5 μL. A Dionex PDA-100 photodiode array detector was used at a wavelength of 237 nm. Sample runtime was 46 minutes. The samples were tested on the day of synthesis (zero point) and at 1, 2, and 4 weeks storage at ambient conditions (i.e., room temperature and room humidity), at 25° C. (+/−2° C.) and 60% relative humidity (RH) (+/−5% RH), and at 40° C. (+/−2° C.) and 75 RH (+/−5% RH). Test results are provided in Table 8 (Form Ib) and Table 9 (Form II), wherein the values provided are the area %.

[3] = 1 week storage, ambient conditions
[4] = 2 weeks storage, ambient conditions
[5] = 4 weeks storage, ambient conditions
[6] = 1 week storage, 25° C./60% RH, dipotassium salt
[7] = 1 week storage, 40° C./75% RH, dipotassium salt
[8] = 1 week storage, ambient conditions, dipotassium salt
[9] = 2 weeks storage, 25° C./60% RH, dipotassium salt
[10] = 2 weeks storage, 40° C./75% RH, dipotassium salt
[11] = 2 weeks storage, ambient conditions, dipotassium salt
[12] = 4 weeks storage, 25° C./60% RH, dipotassium salt
[13] = 4 weeks storage, 40° C./75% RH, dipotassium salt
[14] = 25° C./60% RH, dipotassium salt
[15] = 40° C./75% RH, dipotassium salt
[16] = ambient conditions, dipotassium salt
[17] = zero point (day of synthesis), dipotassium salt
[18] = 25° C. (+/−2° C.) and 60% relative humidity (+/−5% RH)

SMILES: C=C(C[C@H](NC(=O)c1ccc(CCc2ccc3nc(N)nc(N)c3c2)cc1)C(=O)[O-])C(=O)[O-].[K+].[K+] [Form Ib, (S)-2-{4-[2-(2,4-diamino-quinazolin-6-yl)-ethyl]-benzoylamino}-4-methylene-pentanedioic acid, dipotassium salt]
- Water content (Karl Fisher) ([1]; 1 week storage, 25° C./60% RH): 16.0%
- Water content (Karl Fisher) ([1]; 1 week storage, 40° C./75% RH): 19.6%
- Water content (Karl Fisher) [1, 3]: 16.2%
- Water content (Karl Fisher) ([1]; 2 weeks storage, 25° C./60% RH): 15.5%
- Water content (Karl Fisher) ([1]; 2 weeks storage, 40° C./75% RH): 22.7%
- Water content (Karl Fisher) [1, 4]: 16.5%
- Water content (Karl Fisher) ([1]; 4 weeks storage, 25° C./60% RH): 16.4%
- Water content (Karl Fisher) ([1]; 4 weeks storage, 40° C./75% RH): 26.8%
- Water content (Karl Fisher) [1, 5]: 18.4%
- Water content (Karl Fisher) ([1]; zero point (day of synthesis)): 14.8%
- Purity by HPLC-UV [2, 6]: 95.96 area %
- Purity by HPLC-UV [2, 7]: 95.87 area %
- Purity by HPLC-UV [2, 8]: 95.87 area %
- Purity by HPLC-UV [2, 9]: 95.67 area %
- Purity by HPLC-UV [2, 10]: 95.43 area %
- Purity by HPLC-UV [2, 11]: 95.78 area %
- Purity by HPLC-UV [2, 12]: 95.85 area %
- Purity by HPLC-UV [2, 13]: 95.34 area %
- Purity by HPLC-UV [2, 5]: 95.91 area %
- Purity by HPLC-UV, average [2, 14]: 95.83 area %
- Purity by HPLC-UV, average [2, 15]: 95.55 area %
- Purity by HPLC-UV, average [2, 16]: 95.88 area %
- Purity by HPLC-UV [2, 17]: 95.94 area %

SMILES: C=C(C[C@H](NC(=O)c1ccc(CCc2ccc3nc(N)nc(N)c3c2)cc1)C(=O)[O-])C(=O)[O-].[K+].[K+] [Form I, (S)-2-{4-[2-(2,4-diamino-quinazolin-6-yl)-ethyl]-benzoylamino}-4-methylene-pentanedioic acid, dipotassium salt]
- Water uptake on storage (in words) [1, 18]: no significant water uptake

SMILES: C=C(C[C@H](NC(=O)c1ccc(CCc2ccc3nc(N)nc(N)c3c2)cc1)C(=O)[O-])C(=O)[O-].[K+].[K+] [Form II, (S)-2-{4-[2-(2,4-diamino-quinazolin-6-yl)-ethyl]-benzoylamino}-4-methylene-pentanedioic acid, dipotassium salt]
- Water content (Karl Fisher) ([1]; 1 week storage, 25° C./60% RH): 17.0%
- Water content (Karl Fisher) ([1]; 1 week storage, 40° C./75% RH): 21.2%
- Water content (Karl Fisher) [1, 3]: 18.7%
- Water content (Karl Fisher) ([1]; 2 weeks storage, 25° C./60% RH): 16.3%
- Water content (Karl Fisher) ([1]; 2 weeks storage, 40° C./75% RH): 24.4%
- Water content (Karl Fisher) [1, 4]: 21.1%
- Water content (Karl Fisher) ([1]; 4 weeks storage, 25° C./60% RH): 16.5%
- Water content (Karl Fisher) ([1]; 4 weeks storage, 40° C./75% RH): 26.6%
- Water content (Karl Fisher) [1, 5]: 21.9%
- Storage stability (in words) [1, 18]: stable
- Water uptake on storage (in words) [1, 18]: no significant water uptake
- Water content (Karl Fisher) ([1]; zero point (day of synthesis)): 15.6%
- Purity by HPLC-UV [2, 6]: 96.53 area %
- Purity by HPLC-UV [2, 7]: 96.43 area %
- Purity by HPLC-UV [2, 8]: 96.42 area %
- Purity by HPLC-UV [2, 9]: 96.24 area %
- Purity by HPLC-UV [2, 10]: 96.35 area %
- Purity by HPLC-UV [2, 11]: 96.49 area %
- Purity by HPLC-UV [2, 12]: 96.24 area %
- Purity by HPLC-UV [2, 13]: 95.52 area %
- Purity by HPLC-UV, average [2, 14]: 96.44 area %
- Purity by HPLC-UV, average [2, 15]: 96.10 area %
- Purity by HPLC-UV, average [2, 16]: 96.49 area %
- Purity by HPLC-UV [2, 17]: 96.46 area %

From patent publication US20110124650A1, “STABLE CRYSTALLINE SALTS OF ANTIFOLATE COMPOUNDS” (Chelsea Therapeutics, Inc., priority 2009, published 2011)
